In one experiment the target is T1, Adrenergic α2A Receptor (Homo sapiens, UniProt P08913).
T1 construct: expressed in transfected cells; host or cells: insect Sf9 cells
T1 sequence (P08913 1-465): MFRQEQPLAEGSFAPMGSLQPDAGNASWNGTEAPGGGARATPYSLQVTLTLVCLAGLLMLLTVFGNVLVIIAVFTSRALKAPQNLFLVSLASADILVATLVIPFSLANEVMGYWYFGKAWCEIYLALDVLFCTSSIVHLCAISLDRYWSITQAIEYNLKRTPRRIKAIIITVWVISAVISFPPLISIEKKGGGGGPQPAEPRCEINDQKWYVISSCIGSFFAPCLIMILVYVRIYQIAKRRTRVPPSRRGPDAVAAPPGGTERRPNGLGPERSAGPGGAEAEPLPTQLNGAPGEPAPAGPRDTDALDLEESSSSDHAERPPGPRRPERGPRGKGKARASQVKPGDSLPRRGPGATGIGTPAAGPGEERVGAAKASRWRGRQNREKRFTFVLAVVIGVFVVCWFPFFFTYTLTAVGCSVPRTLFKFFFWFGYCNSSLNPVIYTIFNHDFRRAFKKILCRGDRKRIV
Briefly: Adrenergic α2A receptor radioligand binding. The conditions noted are these: 10 μM; 1 nM [3H] MK-912. As to the method: (§1) (a) Adrenergic α2A Receptor: • Reference: S. Uhlen et al. J. Pharmacol. Exp. Ther., 271:1558-1565 (1994) • Source: Human recombinant insect Sf9 cells • Ligand: 1 nM [^3H] […] J. Pharmacol., 99:803-809, (1990) • Source: Wistar rat cerebral cortex • Ligand: 2 nM [3H]

The target in experiment [1] is T2, Dopamine Transporter (DAT) (Homo sapiens, UniProt Q01959).
T2 construct: expressed in transfected cells; host or cells: CHO cells
As to the kind of experiment: Dopamine transporter (DAT) radioligand binding. The conditions noted are these: for Percentage Inhibition of Specific Binding, DAT: 10 μM, 0.15 nM [125I] RTI-55. How it is done: as §1

In a further experiment the target is T3, Monoamine Oxidase MAO-B (Homo sapiens, UniProt P27338).
T3 sequence (P27338 1-520): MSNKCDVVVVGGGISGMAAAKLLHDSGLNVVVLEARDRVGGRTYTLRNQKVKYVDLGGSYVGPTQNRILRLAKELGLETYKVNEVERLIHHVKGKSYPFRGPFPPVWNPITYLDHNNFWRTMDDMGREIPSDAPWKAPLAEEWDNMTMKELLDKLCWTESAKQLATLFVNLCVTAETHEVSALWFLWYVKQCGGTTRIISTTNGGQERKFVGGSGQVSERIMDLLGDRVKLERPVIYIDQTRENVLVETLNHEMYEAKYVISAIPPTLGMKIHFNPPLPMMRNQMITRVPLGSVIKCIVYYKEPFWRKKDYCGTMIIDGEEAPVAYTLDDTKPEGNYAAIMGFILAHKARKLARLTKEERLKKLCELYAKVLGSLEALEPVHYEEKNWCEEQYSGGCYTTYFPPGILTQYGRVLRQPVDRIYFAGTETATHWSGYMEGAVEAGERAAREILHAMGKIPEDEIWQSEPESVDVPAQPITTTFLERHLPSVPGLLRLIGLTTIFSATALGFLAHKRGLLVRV
Briefly: Monoamine Oxidase MAO-B inhibition. Format: biochemical. Conditions: for inhibition at 10 µM: read-out: Percentage Inhibition of Enzyme Activity, MAO-B. How it is done: Isomers B and C were tested for their ability to inhibit enzymes involved in the processing of monoamines in the CNS, namely Catechol O-Methyl Transferase (COMT), Monoamine Oxidase A and Monoamine Oxidase B. The assay methods used are described below and the results are set out in Table 7. (a) Catechol O-Methyl Transferase (COMT) Inhibition • Source: […] None • Incubation time: 60 minutes @ 37° C. • Incubation buffer: 100 mM potassium phosphate, 10 mM MgCl2, 3 mM DTT containing 12 units/ml adenosine deaminase, pH 7.4 • Quantitation method: […]

The inhibition is the change of the read-out against control, counted positive when it falls.

T2 sequence (Q01959 whole entry): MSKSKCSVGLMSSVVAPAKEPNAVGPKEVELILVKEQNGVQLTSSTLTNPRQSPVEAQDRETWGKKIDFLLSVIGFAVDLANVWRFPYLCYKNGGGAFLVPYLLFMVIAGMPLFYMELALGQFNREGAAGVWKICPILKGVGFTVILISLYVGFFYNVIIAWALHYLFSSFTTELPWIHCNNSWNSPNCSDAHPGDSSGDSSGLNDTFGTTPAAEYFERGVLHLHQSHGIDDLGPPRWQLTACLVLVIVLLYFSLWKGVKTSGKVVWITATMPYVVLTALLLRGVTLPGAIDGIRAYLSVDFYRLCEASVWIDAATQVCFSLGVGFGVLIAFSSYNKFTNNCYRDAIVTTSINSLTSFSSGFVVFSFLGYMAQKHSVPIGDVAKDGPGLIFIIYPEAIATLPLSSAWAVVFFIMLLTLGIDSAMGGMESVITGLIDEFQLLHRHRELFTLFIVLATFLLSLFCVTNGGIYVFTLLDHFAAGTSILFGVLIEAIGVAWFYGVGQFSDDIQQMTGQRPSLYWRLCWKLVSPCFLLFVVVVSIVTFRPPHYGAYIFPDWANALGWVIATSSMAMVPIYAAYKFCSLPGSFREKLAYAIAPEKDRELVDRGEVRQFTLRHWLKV

In the case of `COc1cc2c(cc1OC)[C@H]1C[C@H](O)[C@@H](CC(C)C)CN1CC2` (single isomer, unassigned) [Isomer B, 3,11b-cis-dihydrotetrabenazine], the “Percentage Inhibition of Specific Binding, α2A Receptor” value at Adrenergic α2A Receptor is recorded as 12%. In experiment [1], the “DAT binding activity (in words)” value is given as “lack Dopamine Transporter (DAT) binding activity” and the “Percentage Inhibition of Specific Binding, DAT” value turned out to be 4%. In addition, on Monoamine Oxidase MAO-B, the “inhibitory activity against monoamine oxidase isoform B (in words)” value is listed as “no inhibitory activity” and the inhibition at 10 µM was -5%.

`COc1cc2c(cc1OC)[C@H]1C[C@@H](O)[C@@H](CC(C)C)CN1CC2` (single isomer, unassigned) [Isomer C, 3,11b-cis-dihydrotetrabenazine]: the “Percentage Inhibition of Specific Binding, α2A Receptor” value at Adrenergic α2A Receptor is on record as 13%. In addition, in experiment [1], the “DAT binding activity (in words)” value is “lack Dopamine Transporter (DAT) binding activity” and the “Percentage Inhibition of Specific Binding, DAT” value is on record as −2%. For the same compound, on Monoamine Oxidase MAO-B, the “inhibitory activity against monoamine oxidase isoform B (in words)” value is on record as “no inhibitory activity” and the inhibition at 10 µM is -5%.
